Common to all, as to test: fluorescence titration of purified protein, hyperbolic fit, […]°C
Experiment [1] addresses T1, drFabp2 (intestinal fatty acid binding protein) (Danio rerio, UniProt A0A8M1P5F0, K17A/K28A/R29A).
T1 construct: gene fabp2; Full-length mutant, recombinant from E. coli BL21 (DE3), delipidated (apo)

The target in experiment [2] is T2, drFabp2 (intestinal fatty acid binding protein) (Danio rerio, UniProt A0A8M1P5F0).
T2 construct: gene fabp2; Full-length wild-type, recombinant from E. coli BL21 (DE3), delipidated (apo)
T2 sequence (A0A8M1P5F0 1-132): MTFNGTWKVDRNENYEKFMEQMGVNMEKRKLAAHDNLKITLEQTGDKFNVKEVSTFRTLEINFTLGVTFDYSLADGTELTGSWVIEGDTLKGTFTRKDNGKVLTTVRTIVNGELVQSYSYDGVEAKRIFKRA

In experiment [3] the target is T3, drFabp2 (intestinal fatty acid binding protein) (Danio rerio, UniProt A0A8M1P5F0, K17A/K30A/R29A).
T3 construct: gene fabp2; Full-length mutant, recombinant from E. coli BL21 (DE3), delipidated (apo)
T3 sequence (A0A8M1P5F0 entry or part of it K17A/R29A/K30A): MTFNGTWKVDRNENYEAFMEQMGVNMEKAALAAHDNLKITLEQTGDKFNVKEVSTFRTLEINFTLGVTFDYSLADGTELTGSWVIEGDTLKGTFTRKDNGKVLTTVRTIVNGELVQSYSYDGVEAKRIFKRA

T1 sequence (A0A8M1P5F0 entry or part of it K17A/K28A/R29A): as the sequence (A0A8M1P5F0 entry or part of it K17A/R29A/K30A) above, with K28A, A30K counted along it

Turning to `CC1=CC(C)=[N+]2C1=Cc1ccc(CCCCCCCCCCCCCCCC(=O)O)n1[B-]2(F)F` [BODIPY FL C16], the Kd in experiment [1] stood at 112 nM; in experiment [2], 160 nM; in experiment [3] it was 129 nM.

These data come from PMC7660557, “Identification of a non-classical three-dimensional nuclear localization signal in the intestinal fatty acid binding protein” (PLoS ONE, 2020).
